{
  "source": "patent US20250367187A1",
  "about": "“QUINOLINE DERIVATIVE USED FOR TREATING SMALL CELL LUNG CANCER” (CHIA TAI TIANQING PHARMACEUTICAL GROUP CO., LTD., priority 2018, published 2025)",
  "key": {"[1]": {"system": "patients with relapsed small cell lung cancer", "assay": "Multicenter, randomized, double-blind, placebo-controlled phase II clinical study", "assay_type": "in vivo, human", "protocol": "A multicenter, randomized, double-blind and placebo-controlled phase II clinical study was conducted for patients with relapsed small cell lung cancer characterized by presence of measurable lesions and prior standard treatment. In this study; 120 patients were enrolled and randomized to receive oral administration of 1 capsule of the dihydrochloride of the compound of formula I at 12 mg/0 mg once daily. The oral administration was continued for 2 weeks and interrupted for 1 week, i.e., 1 treatment cycle took 3 weeks (21 days). These patients aged 18-75 were treated with the capsule of the dihydrochloride of the compound of formula I and placebo control, and patients who had previously used other targeted drugs (such as sunitinib, bevacizumab, and endostar) and immunotargeted drugs were excluded. In the case of progressive disease (PD) determined by the response evaluation criteria or judged clinically; treatment with other anti-tumor drugs (such as chemotherapy; targeted therapy or biological agent therapy) influencing the judgment of efficacy; unexpected pregnancy; death and the like, the administration was interrupted (terminated) for a subject. For patients with disease under control (CR+PR+SD) and tolerable adverse reactions, the administration was continued. For patients who were unsuitable for continued administration judged by the investigator or were evaluated as PD according to RECIST 1.1 criteria, the administration was terminated. During the administration, depending on the drug-related toxicity degree and the possible efficacy benefit of a patient, the investigator determined whether to adjust the dosage, and the adjustable dosage was 8 mg/0 mg or 10 mg/0 mg. The primary efficacy endpoint was progression-free survival (PFS), and the secondary efficacy endpoints were overall survival (OS), objective response rate (ORR) (CR+PR), disease control rate (DCR) (CR+PR+SD), quality of life score and safety: The objective efficacy endpoint was evaluated according to the response evaluation criteria in solid tumor (RECIST 1.1). All statistical analyses were conducted using the SAS 9.2 statistical analysis software programming. All statistical tests were conducted using bilateral test. When P value≤0.05, the tested difference was considered statistically significant, with the confidence interval being 95% confidence. For the primary efficacy endpoint PFS, 50% (median) PFS and PFS at different time points after the start of the treatment were calculated by using the product limit method according to the data situation, and the two groups were compared using Log-Rank test. For OS, 50% (median) OS was calculated by using the product limit method according to the data situation, and the two groups were compared using Log-Rank test. The full analysis set (FAS) was used for the statistical dataset."}, "[2]": {"system": "small cell lung cancer with liver and brain metastases", "assay": "Case of a patient with small cell lung cancer with liver and brain metastases (CT follow-up)", "assay_type": "in vivo, human", "protocol": "A person was pathologically diagnosed with small cell lung cancer of the left lower lobe in October 2013 after surgery. On Dec. […] The patient was admitted to the hospital for one cycle of liposomal paclitaxel+carboplatin+temozolomide chemotherapy and was discharged on December 28.\nOne cycle of TC regimen (paclitaxel+carboplatin) was started on Jan. 17, 2017, and the efficacy was evaluated as PD on Feb. 10, 2017. One cycle of IP regimen (irinotecan 120 mg d1, 80 mg d8; cisplatin 100 mg d1) was started on Feb. 16, 2017.\nOn May 12, 2017, oral administration of a capsule of the dihydrochloride of the compound of formula I at 12 mg was started once daily for 2 weeks and interrupted for 1 week, every 3-week as one treatment cycle until PD or intolerance.\nThe CT results were as follows: • After the first treatment cycle: target lesion: 63 mm; non-target lesions: non-CR/non-PD. • After the second treatment cycle: target lesion: 65 mm; non-target lesions: non-CR/non-PD. • After the fourth treatment cycle: target lesion: 66 mm; non-target lesions: non-CR/non-PD. • After the sixth treatment cycle: target lesion: 72 mm; non-target lesions: non-CR/non-PD. 1-20. (canceled)"}, "[3]": {"conditions": "CR or PR achieved with second-line chemotherapy: No"}, "[4]": {"conditions": "CR or PR achieved with second-line chemotherapy: Yes"}, "[5]": {"conditions": "all patients, FAS, capsule 12 mg oral once daily, 2 weeks on / 1 week off"}, "[6]": {"conditions": "brain metastasis upon enrollment: Yes"}, "[7]": {"conditions": "clinical stage before randomization: extended stage"}, "[8]": {"conditions": "after the fourth treatment cycle"}, "[9]": {"conditions": "after the second treatment cycle"}, "[10]": {"conditions": "after the sixth treatment cycle"}},
  "note": "Counter-ions that a name gives are not always drawn.",
  "data": [
    {"compound": "COc1cc2c(Oc3ccc4[nH]c(C)cc4c3F)ccnc2cc1OCC1(N)CC1", "note": "[1-[[[4-(4-fluoro-2-methyl-1H-indol-5-yl)oxy-6-methoxyquinolin-7-yl]oxy]methyl]cyclopropylamine dihydrochloride]", "values": [
      {"measurement": "Overall survival P50", "setting": "[1]; [3]", "value": 7.29, "unit": "month"},
      {"measurement": "Progression-free survival P50", "setting": "[1]; [3]", "value": 4.11, "unit": "month"},
      {"measurement": "Overall survival P50", "setting": "[1]; [4]", "value": 6.80, "unit": "month"},
      {"measurement": "Progression-free survival P50", "setting": "[1]; [4]", "value": 2.79, "unit": "month"},
      {"measurement": "Overall survival of patients (OS), Median (95% CI)", "setting": "[1]; [5]", "value": "7.29(6.50, 10.51) month"},
      {"measurement": "Progression-free survival of patients (PFS), Median (95% CI)", "setting": "[1]; [5]", "value": "4.07(2.79, 4.24) month"},
      {"measurement": "Overall survival P50", "setting": "[1]; brain metastasis upon enrollment: No", "value": 8.80, "unit": "month"},
      {"measurement": "Overall survival P50", "setting": "[1]; [6]", "value": 6.08, "unit": "month"},
      {"measurement": "Progression-free survival P50", "setting": "[1]; [6]", "value": 3.84, "unit": "month"},
      {"measurement": "Overall survival P50", "setting": "[1]; chemotherapy line: second-line", "value": 7.29, "unit": "month"},
      {"measurement": "Progression-free survival P50", "setting": "[1]; chemotherapy line: second-line", "value": 4.11, "unit": "month"},
      {"measurement": "Overall survival P50", "setting": "[1]; [7]", "value": 8.05, "unit": "month"},
      {"measurement": "Progression-free survival P50", "setting": "[1]; [7]", "value": 3.84, "unit": "month"},
      {"measurement": "Progression-free survival P50", "setting": "[1]; clinical stage before randomization: limited stage", "value": 4.83, "unit": "month"},
      {"measurement": "Progression-free survival P50", "setting": "[1]; treated with docetaxel: No", "value": 4.07, "unit": "month"},
      {"measurement": "Progression-free survival P50", "setting": "[1]; treated with docetaxel: Yes", "value": 2.83, "unit": "month"},
      {"measurement": "Progression-free survival P50", "setting": "[1]; treated with irinotecan + platinum: No", "value": 2.83, "unit": "month"},
      {"measurement": "Progression-free survival P50", "setting": "[1]; treated with irinotecan + platinum: Yes", "value": 4.07, "unit": "month"},
      {"measurement": "Progression-free survival P50", "setting": "[1]; treated with paclitaxel: No", "value": 4.11, "unit": "month"},
      {"measurement": "Progression-free survival P50", "setting": "[1]; treated with paclitaxel: Yes", "value": 2.86, "unit": "month"},
      {"measurement": "target lesion (CT)", "setting": "[2]; after the first treatment cycle, liver nodes, 64 mm before treatment, 12 mg once daily 2 weeks on / 1 week off", "value": 63, "unit": "mm"},
      {"measurement": "non-target lesions (CT)", "setting": "[2]; after the first treatment cycle, multiple metastases in the brain", "value": "non-CR/non-PD"},
      {"measurement": "non-target lesions (CT)", "setting": "[2]; [8]", "value": "non-CR/non-PD"},
      {"measurement": "target lesion (CT)", "setting": "[2]; [8]", "value": 66, "unit": "mm"},
      {"measurement": "non-target lesions (CT)", "setting": "[2]; [9]", "value": "non-CR/non-PD"},
      {"measurement": "target lesion (CT)", "setting": "[2]; [9]", "value": 65, "unit": "mm"},
      {"measurement": "non-target lesions (CT)", "setting": "[2]; [10]", "value": "non-CR/non-PD"},
      {"measurement": "target lesion (CT)", "setting": "[2]; [10]", "value": 72, "unit": "mm"},
      {"measurement": "tolerability of the administration", "setting": "[2]; capsule 12 mg oral once daily, 2 weeks on / 1 week off", "value": "well tolerated"}
    ]}
  ]
}
